Laboratory results taken from patent US11344614B2, “Pharmaceutical compositions comprising dengue virus-specific multiple HLA-binding T cell epitopes” (priority 2018, dated 2022).
Peptide text beside a SMILES is read from it.

Test system: CD8+ T cells
Conditions: healthy seronegative HLA-A2 donor CTLs, peptide pulsed or DENV-2 infected JY cells, FIG. 1; for secretion of granzyme B (cytotoxic activity): supernatant
Source text: FIG. 1. […] (A.) HLA-A2 restricted CTLs directed against the peptides (peptides are represented as first 3 residues of the sequence) were generated using peripheral blood from a seronegative donor. PBMCs containing the epitope specific CTLs were harvested, washed, and cultured with the peptide […] cells overnight in an IFN-gamma ELISpot assay. (B). Identical cultures were set up as in (A) but in 96 well round bottom plates. The next day, supernatant was harvested and used to detect cytolytic activity (B) and the cells were analyzed for the marker of degranulation, CD107a (C.)
Epitope specific CD8^+ T cells (CTLs) were generated as previously described. […] Two hours after pulsing, the non-adherent cells were added back into the plates in a cytokine rich medium of RPMI-1640 supplemented with IL-7 (5 ng/mL), GM-CSF (25 ng/mL), IL-4 (50 ng/mL), and keyhole limpet hemocyanin (5 ug/mL KLH; Sigma-Aldrich) and cultured at 37° C. at 5% CO2. T cells in the culture were restimulated two weeks after the initial stimulation with autologous PBMCs depleted of CD4^+ and CD8^+ T cells and pulsed with synthetic peptides (10 ug/mL) and β2-microglobulin (1.5 ug/mL). Restimulated cells were cultured in RPMI-1640 supplemented with IL-15 (5 ng/mL), GM-CSF (12.5 ng/mL) and IL-2 (10 U/mL) for 7 days. Restimulation was performed a total of three times prior to CTL functional assays. Unless otherwise specified, all cytokines and growth factors were purchased from eBiosciences (San Diego, Calif.).

Compound | degranulation marker CD107a (cytotoxic activity) | secretion of granzyme B (cytotoxic activity)
CC[C@H](C)[C@H](NC(=O)[C@@H](NC(=O)[C@H](C)NC(=O)[C@H](CC(N)=O)NC(=O)[C@@H]1CCCN1C(=O)[C@@H](NC(=O)[C@H](CS)NC(=O)[C@H](CC(C)C)NC(=O)[C@H](CCSC)NC(=O)[C@H](C)N)[C@@H](C)CC)[C@@H](C)CC)C(=O)O [AML] (H-AMLCIPNAII-OH; N-terminus and C-terminus assumed) | upregulation of the degranulation marker CD107a | secretion
CC[C@H](C)[C@H](NC(=O)[C@H](CCSC)NC(=O)[C@@H](NC(=O)[C@H](CC(N)=O)NC(=O)[C@@H]1CCCN1C(=O)[C@@H](NC(=O)[C@H](CS)NC(=O)[C@H](CC(C)C)NC(=O)[C@@H](N)CC(C)C)C(C)C)[C@@H](C)CC)C(=O)O [LLC] (H-LLCVPNIMI-OH; N-terminus and C-terminus assumed) | upregulation of the degranulation marker CD107a | secretion
CC[C@H](C)[C@H](NC(=O)[C@@H](NC(=O)[C@@H](N)CCSC)[C@@H](C)CC)C(=O)N[C@H](C(=O)N[C@@H](CC(=O)O)C(=O)N[C@@H](CCC(=O)O)C(=O)N[C@@H](C)C(=O)N[C@@H](Cc1c[nH]cn1)C(=O)N[C@@H](Cc1ccccc1)C(=O)O)C(C)C [MII] (H-MIIVDEAHF-OH; N-terminus and C-terminus assumed) | upregulation of the degranulation marker CD107a | secretion
CC[C@H](C)[C@H](NC(=O)[C@H](Cc1ccccc1)NC(=O)[C@H](C)N)C(=O)N[C@@H](C)C(=O)N[C@@H](Cc1ccccc1)C(=O)N[C@H](C(=O)N[C@@H](CCCNC(=N)N)C(=O)N[C@@H](Cc1ccccc1)C(=O)O)C(C)C [AFI] (H-AFIAFVRF-OH; N-terminus and C-terminus assumed) | upregulation of the degranulation marker CD107a | secretion
